# Test results published in publication PMC12044458 (ACS Omega, 2025).
# Experiments:
# [1] = test system: Poly(I:C) Na^+ (RNA, polymer, hypoxanthine (inosine) in place of every G of strand 1 (polyinosinic acid)) G/C; test: UV melting; conditions: PBS, 0 mM Mg2+, derived from two Tm (64 and 65), compound concentration not in material, per base
# [2] = test system: Poly(I:C) HMW (RNA, polymer, hypoxanthine (inosine) in place of every G of strand 1 (polyinosinic acid)) G/C; test: UV melting; conditions: PBS, 0 mM Mg2+, derived from two Tm (67 and 67), compound concentration not in material, per base
smiles,measurement,setting,value
CN(C)[C@@H]1C(=O)C(C(N)=O)=C(O)[C@@]2(O)C(=O)C3=C(O)c4c(O)cccc4[C@@](C)(O)[C@H]3C[C@@H]12,melting temperature shift (ΔTm),[1],-1 °C
same,melting temperature shift (ΔTm),[2],0 °C
